{
  "source": "patent US12090204B2",
  "about": "“Photodynamic therapy compositions and methods of use thereof” (Pinnacle Biologics, Inc., priority 2020, dated 2024)",
  "key": {"P. anaerobius (+)": {"test_system": "P. anaerobius (+)", "assay": "porfimer sodium aPDT, planktonic culture", "type": "cell-based, Peptostreptococcus anaerobius", "conditions": "630 nm, kill at 75 J/cm2 (light dose 50-100 J/cm2), porfimer sodium 150 μg/mL", "description": "(§1) Bacteria were routinely cultured using tryptic soy broth or agar at 37° C. in a 5% CO2 incubator. Bacteria were isolated and suspended with 0.9% NaCl to an Optical Density (OD) of 0.1 taken at 630 nm, to generate the inoculum used for either planktonic or biofilm assays.\n(§2) Experiments using planktonic cultures were carried out using M. catarrhalis, as a standard for further comparisons and to determine the effective drug concentration, porfimer sodium incubation time and light dose parameters which would provide an effective cell kill at the level of 5-7 logs. Once determined the experiments were repeated for all other bacterial strains examined.\n(§3) The colony forming units (CFU) per mL of the starting inoculum for every experiment was determined by dilution plating. […]\n(§4) Bacteria were exposed to 630 nm laser light via a fiber optic with a lens affixed to the distal end to provide a uniform diverging light field. […] Power output of the laser was measured using a UDT/Gamma Scientific 371 optical power meter and an integrating sphere. […]\n(§5) Biofilms were formed on glass coupons in culture dishes containing a bacterial inoculum for 48 hours under conditions specific to the strain. […] Power output of the laser was measured using a UDT/Gamma Scientific 371 optical power meter and an integrating sphere. […]"}, "E. coli (−)": {"test_system": "E. coli (−)", "assay": "porfimer sodium aPDT, planktonic culture", "type": "cell-based, Escherichia coli", "conditions": "630 nm, 200 J/cm2, porfimer sodium 125 μg/mL", "description": "as §1, §2, §3, §4, §5"}, "H. influenza (−)": {"test_system": "H. influenza (−)", "assay": "porfimer sodium aPDT, planktonic culture", "type": "cell-based, Haemophilus influenza", "conditions": "630 nm, 200 J/cm2, porfimer sodium 125 μg/mL", "description": "as §1, §2, §3, §4, §5"}, "S. pneumo (+)": {"test_system": "S. pneumo (+)", "assay": "porfimer sodium aPDT, planktonic culture", "type": "cell-based, Streptococcus pneumoniae", "conditions": "630 nm, 100 J/cm2, porfimer sodium 125 μg/mL", "description": "as §1, §2, §3, §4, §5"}, "M. catarrhalis (−)": {"test_system": "M. catarrhalis (−)", "assay": "porfimer sodium aPDT, planktonic culture", "type": "cell-based, Moraxella catarrhalis", "description": "as §1, §2, §3, §4, §5"}, "[1]": {"assay": "in vitro human skin permeation, flow through diffusion cell", "type": "in vitro ADME", "conditions": "24 hours post application", "description": "A study was completed to show the ability of the formulation to deliver the drug into human skin in an in vitro setting, while retaining the API within the appropriate skin layers.\nIn this experiment, TEWL for each diffusion cell would was measured and recorded before test article applications. A range of not more than 25 g/m2/h will be acceptable for this study. An automated in-line flow through diffusion cell system (PermeGear Collector FC 33, Version 3.1) was used to assess drug in the skin permeation experiment. Test articles were uniformly dispensed onto the skin tissue surface using a positive displacement pipette, set to deliver 7.8 μL. The study was performed under dark environment and closed to ambient conditions. […] The swabs and the tape strips were analyzed upon request. […] The separated samples were placed in respective pre-weighed labelled vials and weight of tissues were recorded.\nEpidermal and dermal samples were processed and homogenized while maintaining a dark environment using the following protocol: 500 μL of homogenizing mixture, Water: Acetonitrile, 1:1 (v/v), was added to the labelled tubes containing the skin samples. […] The following samples were analyzed for drug content: Receptor solution samples at different time-points; skin samples (epidermis and dermis for each cell at the final time point), tape strips and cotton swabs analyzed for mass balance determination. […]"}},
  "data": [
    {"substance": "porfimer sodium", "values": [
      {"measurement": "Rate of kill", "setting": "P. anaerobius (+)", "result": 5, "unit": "Log"},
      {"measurement": "Rate of kill", "setting": "E. coli (−)", "result": "<1", "unit": "Log"},
      {"measurement": "Rate of kill", "setting": "H. influenza (−)", "result": 4, "unit": "Log"},
      {"measurement": "Rate of kill", "setting": "S. pneumo (+)", "result": ">4", "unit": "Log"},
      {"measurement": "bacterial cell kill", "setting": "M. catarrhalis (−); 125 μg/ml, incubated 10 minutes, light doses 50-100 J/cm^2", "result": "6-7 logs"},
      {"measurement": "Rate of kill", "setting": "M. catarrhalis (−); 630 nm, 200 J/cm2, porfimer sodium 125 μg/mL", "result": 7, "unit": "Log"},
      {"measurement": "skin layer where porfimer sodium permeation was found", "setting": "[1]", "result": "predominantly found in the epidermal layers of the skin"}
    ]}
  ]
}
